From patent US11136300B2, “Crystalline forms of 3-substituted 1,2,4-oxadiazole” (Aurigene Discovery Technologies Limited, priority 2017, dated 2021)
≈ marks a conversion by molar mass, not a printed value.

Experiments:
Format in all cases: physicochemical
[1] = Solid stability of crystalline Form 2 on storage; conditions: 7-8 days
Procedure: Samples of formula (I) crystalline Form 2 were stored as solids at 25° C./60% Relative Humidity (RH), 30° C./˜56%, and 40° C./75% RH for 7-8 days. The samples were prepared in duplicate with an offset of 2 weeks. Each replicate was stored in a different container.

[2] = Equilibrium solubility of formula (I) Form 2 in water; conditions: for Final Form: solids checked by XRPD after 6 hrs; for solubility at 6 h: thermodynamic from solid, equilibrated 6 hrs, supernatant by HPLC
Procedure: Equilibrium solubility of formula (I) Form 2 was measured in the water at 20° C. and 30° C. All samples were equilibrated at temperature for 6 hrs, and the solubility of supernatant was measured by HPLC, while the solids were checked by XRPD. (See Table 9.)

[3] = Storage of Form 1 at ambient conditions
Procedure: Formula (I) Form 1 exists at ambient conditions upon short term storage (i.e., less than 8 d). A mixture of formula (I) Forms 1 and 2 (16 mg) was weighed into a glass vial, and tetrahydrofuran (THF, 0.5 mL) was added. The resulting slurry was stirred at room temperature for about 4 d. The wet solids were analyzed by XRPD in transmission mode and confirmed to be crystalline formula (I) Form 1, as shown by XRPD analysis (FIG. 1).

| solid form and particle morphology after storage ([1]; 25° C./60% RH) | solid form and particle morphology after storage ([1]; 30° C./~56% RH) | solid form and particle morphology after storage ([1]; 40° C./75% RH) | form change during the solubility testing ([2]; 20° C. and 30° C., XRPD (FIG. 6)) | Final Form ([2]; 20° C.) | Final Form ([2]; 30° C.) | solubility at 6 h ([2]; 20° C.) [mg/mL] | solubility at 6 h ([2]; 30° C.) [mg/mL] | time for which the form exists on short term storage [3] | Compound |
| --- | --- | --- | --- | --- | --- | --- | --- | --- | --- |
| remained unchanged | remained unchanged | remained unchanged | No form change was observed | Form 2 | Form 2 | 148 (≈ 410 mM) | 166 (≈ 459 mM) |  | CC(O)[C@H](NC(=O)N[C@@H](CC(N)=O)c1nc([C@@H](N)CO)no1)C(=O)O (stereo partly drawn) [Form 2] |
|  |  |  |  |  |  |  |  | less than 8 d | CC(O)[C@H](NC(=O)N[C@@H](CC(N)=O)c1nc([C@@H](N)CO)no1)C(=O)O (stereo partly drawn) [Form 1] |
